The text below walks through data of patent US10231954B2, “Neurodegenerative therapies” (LYTIX BIOPHARMA AS, priority 2014, dated 2019).

Holding throughout (format): biochemical
The target in one test is T1, EPH-B4 (Homo sapiens, UniProt P54760).
T1 sequence (P54760 16-987): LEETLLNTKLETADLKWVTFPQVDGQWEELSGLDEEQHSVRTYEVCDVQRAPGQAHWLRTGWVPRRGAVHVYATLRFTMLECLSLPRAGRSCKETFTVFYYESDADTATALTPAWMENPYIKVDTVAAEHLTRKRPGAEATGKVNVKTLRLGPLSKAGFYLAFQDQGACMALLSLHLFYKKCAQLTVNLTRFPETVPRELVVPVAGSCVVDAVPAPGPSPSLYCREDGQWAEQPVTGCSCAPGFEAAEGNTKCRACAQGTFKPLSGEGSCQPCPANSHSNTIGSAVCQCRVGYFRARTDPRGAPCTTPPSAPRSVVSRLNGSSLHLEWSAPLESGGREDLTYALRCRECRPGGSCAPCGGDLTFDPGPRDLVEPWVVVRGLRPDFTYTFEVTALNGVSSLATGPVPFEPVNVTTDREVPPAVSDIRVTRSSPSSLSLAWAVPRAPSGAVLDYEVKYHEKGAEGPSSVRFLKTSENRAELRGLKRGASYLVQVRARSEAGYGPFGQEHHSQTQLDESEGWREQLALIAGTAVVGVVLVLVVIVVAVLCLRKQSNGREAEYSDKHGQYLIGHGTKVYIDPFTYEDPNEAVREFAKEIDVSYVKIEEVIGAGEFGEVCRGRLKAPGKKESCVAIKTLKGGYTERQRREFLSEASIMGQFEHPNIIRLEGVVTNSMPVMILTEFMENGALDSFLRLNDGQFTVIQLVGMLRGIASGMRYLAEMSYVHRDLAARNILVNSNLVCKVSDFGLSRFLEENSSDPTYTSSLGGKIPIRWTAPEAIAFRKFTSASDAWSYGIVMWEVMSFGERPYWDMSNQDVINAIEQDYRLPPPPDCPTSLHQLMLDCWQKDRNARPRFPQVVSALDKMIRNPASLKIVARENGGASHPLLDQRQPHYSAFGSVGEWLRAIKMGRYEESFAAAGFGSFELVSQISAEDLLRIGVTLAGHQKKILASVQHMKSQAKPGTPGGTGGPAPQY
The test can be described thus: Kinase profiling EPH-B4. The settings on record: for remaining activity at 100 µM: read-out: residual kinase activity, EPH-B4. From the text:
(§1) Any value less that 25 is considered to be highly significant inhibition.

A further test has as its target PAK6 (Homo sapiens, UniProt Q9NQU5). The test can be described thus: Kinase profiling PAK6. The settings on record: for remaining activity at 100 µM: read-out: residual kinase activity, PAK6.
Description: as §1

Another test addresses T2, PRAK (Homo sapiens, UniProt Q8IW41).
T2 sequence (Q8IW41 1-473): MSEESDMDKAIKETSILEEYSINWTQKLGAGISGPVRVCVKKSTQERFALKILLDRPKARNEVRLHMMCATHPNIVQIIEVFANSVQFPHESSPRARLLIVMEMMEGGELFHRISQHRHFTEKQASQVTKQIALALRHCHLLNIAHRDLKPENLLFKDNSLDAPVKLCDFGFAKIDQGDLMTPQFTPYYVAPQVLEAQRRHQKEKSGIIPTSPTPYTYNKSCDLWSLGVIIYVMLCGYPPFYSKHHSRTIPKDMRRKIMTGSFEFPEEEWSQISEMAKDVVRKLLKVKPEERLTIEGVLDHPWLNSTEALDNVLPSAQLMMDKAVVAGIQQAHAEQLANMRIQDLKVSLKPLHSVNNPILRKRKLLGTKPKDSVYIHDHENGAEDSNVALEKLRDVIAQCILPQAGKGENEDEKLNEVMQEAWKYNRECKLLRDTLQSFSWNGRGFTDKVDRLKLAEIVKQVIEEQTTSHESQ
The test can be described thus: Kinase profiling PRAK. To be noted: for remaining activity at 100 µM: read-out: residual kinase activity, PRAK.
Description: as §1

Another test concerns the target T3, MARK4 (Homo sapiens, UniProt Q96L34).
T3 sequence (Q96L34 1-752): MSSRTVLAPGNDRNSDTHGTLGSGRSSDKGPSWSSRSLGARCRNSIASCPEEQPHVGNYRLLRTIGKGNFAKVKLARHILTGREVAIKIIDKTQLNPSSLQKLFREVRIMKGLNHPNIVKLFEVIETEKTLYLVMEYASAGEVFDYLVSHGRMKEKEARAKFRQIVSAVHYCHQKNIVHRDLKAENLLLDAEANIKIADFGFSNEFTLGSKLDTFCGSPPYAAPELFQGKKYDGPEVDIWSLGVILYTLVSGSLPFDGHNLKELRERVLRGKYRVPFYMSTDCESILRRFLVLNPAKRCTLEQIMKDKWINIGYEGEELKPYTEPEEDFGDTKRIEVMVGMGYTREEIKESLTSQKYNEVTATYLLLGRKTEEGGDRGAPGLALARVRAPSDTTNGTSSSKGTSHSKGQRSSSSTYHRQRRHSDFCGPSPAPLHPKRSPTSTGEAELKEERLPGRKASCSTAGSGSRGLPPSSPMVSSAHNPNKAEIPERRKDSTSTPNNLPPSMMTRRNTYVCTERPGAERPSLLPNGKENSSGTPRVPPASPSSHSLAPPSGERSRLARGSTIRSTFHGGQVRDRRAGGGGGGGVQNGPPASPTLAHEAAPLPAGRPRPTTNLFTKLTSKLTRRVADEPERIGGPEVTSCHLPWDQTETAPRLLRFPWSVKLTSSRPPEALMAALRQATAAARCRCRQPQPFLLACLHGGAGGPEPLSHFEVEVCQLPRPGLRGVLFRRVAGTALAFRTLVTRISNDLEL
The test can be described thus: Kinase profiling MARK4. The settings on record: for remaining activity at 100 µM: read-out: residual kinase activity, MARK4.
Description: as §1

[1] abbreviates: 100 micromolar inhibitor concentration, 100 is no change.
Setting [2] is: 100 micromolar inhibitor, 100 = no change.

Like-named read-outs stand apart in the source and are kept apart here.

Sequence of PAK6 (Q9NQU5 whole entry, species assumed): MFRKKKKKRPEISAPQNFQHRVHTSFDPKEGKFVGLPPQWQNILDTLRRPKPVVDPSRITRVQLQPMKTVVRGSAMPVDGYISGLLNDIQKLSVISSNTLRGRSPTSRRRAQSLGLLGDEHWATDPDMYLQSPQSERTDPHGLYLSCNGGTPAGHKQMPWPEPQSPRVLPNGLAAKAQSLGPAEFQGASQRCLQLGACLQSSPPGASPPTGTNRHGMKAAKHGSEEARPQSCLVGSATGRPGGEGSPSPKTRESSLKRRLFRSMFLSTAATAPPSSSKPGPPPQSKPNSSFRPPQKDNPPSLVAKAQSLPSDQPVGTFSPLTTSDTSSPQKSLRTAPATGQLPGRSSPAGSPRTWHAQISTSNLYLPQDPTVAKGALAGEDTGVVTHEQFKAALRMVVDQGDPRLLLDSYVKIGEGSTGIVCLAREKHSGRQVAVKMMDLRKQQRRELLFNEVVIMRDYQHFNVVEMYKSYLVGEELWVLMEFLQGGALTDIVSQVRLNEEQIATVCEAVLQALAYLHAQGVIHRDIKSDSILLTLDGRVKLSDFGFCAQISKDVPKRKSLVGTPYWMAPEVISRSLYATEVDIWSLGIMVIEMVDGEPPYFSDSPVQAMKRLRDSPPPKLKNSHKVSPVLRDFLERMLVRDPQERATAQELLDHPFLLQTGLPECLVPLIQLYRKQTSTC

For `CC(=O)Nc1nc2cc(O)ccc2s1` [Compound 01-66, N-(5-hydroxybenzo[d]thiazol-2-yl)acetamide], the remaining activity at 100 µM at EPH-B4 amounted to 83%; at PAK6 it was 90%; at PRAK it was 58%; on MARK4, 80%.
As for `CC(=O)Nc1nc2ccc(O)cc2s1` [Compound 01-71], the remaining activity at 100 µM at EPH-B4 (setting [1]) stood at 98%; on PAK6 (setting [1]) it was 81%; on PRAK (setting [1]) it was 47%; on MARK4 (setting [1]), 66%.
Turning to `CC(=O)Nc1nc2ccc(C(F)(F)F)cc2s1` [Compound 01-90], the remaining activity at 100 µM at EPH-B4 (setting [1]) turned out to be 55%; at PAK6 (setting [1]), 106%; on PRAK (setting [1]) it was 111%; on MARK4 (setting [1]), 66%.
For `CC(=O)Nc1nc2ccc(C#N)cc2s1` [Compound 01-94] the same measures were 62%, 92%, 69% and 51%.
In the case of `CC(=O)Nc1cccc(NC(=O)c2nc3ccc(O)cc3s2)c1` [Compound 03-07, N-(3-acetamidophenyl)-6-hydroxybenzo[d]thiazole-2-carboxamide], the remaining activity at 100 µM was found to be 100% at EPH-B4 (setting [2]), 106% at PAK6 (setting [2]), 59% on PRAK (setting [2]) and 71% at MARK4 (setting [2]).
For `O=C(Nc1nc2cc(O)ccc2s1)c1ccncc1` [Compound 03-11], the “residual kinase activity, EPH-B4” value on EPH-B4 (setting [1]) was 97. The “residual kinase activity, PAK6” value on PAK6 (setting [1]) is listed as 90. Also, on PRAK (setting [1]), the “residual kinase activity, PRAK” value came out at 86. In addition, the “residual kinase activity, MARK4” value at MARK4 (setting [1]) is given as 102.
With `O=C(Nc1nc2ccc(O)cc2s1)c1ccccn1` [Compound 03-12], the “residual kinase activity, EPH-B4” value at EPH-B4 (setting [1]) came to 84. For the same compound, the “residual kinase activity, PAK6” value on PAK6 (setting [1]) is given as 101. Besides, the “residual kinase activity, PRAK” value on PRAK (setting [1]) came to 65. For the same compound, the “residual kinase activity, MARK4” value on MARK4 (setting [1]) was 90.
For `O=C(Nc1nc2cc(O)ccc2s1)c1ccccn1` [Compound 03-13], in that order: 88, 99, 90 and 71.
Consider `COc1ccc2sc(NC(C)=O)nc2c1` [Compound 03-21], for which the remaining activity at 100 µM at EPH-B4 (setting [1]) is 98%; on PAK6 (setting [1]), 108%; at PRAK (setting [1]), 71%; on MARK4 (setting [1]), 100%.
Turning to `CC(=O)Nc1nc2ccccc2s1` [Compound 03-32], at EPH-B4 (setting [1]), the “residual kinase activity, EPH-B4” value amounted to 99. Also, on PAK6 (setting [1]), the “residual kinase activity, PAK6” value was 92. In addition, the “residual kinase activity, PRAK” value on PRAK (setting [1]) amounted to 78. Besides, the “residual kinase activity, MARK4” value at MARK4 (setting [1]) is 91.
As for `O=C(Nc1nc2cc(O)ccc2s1)c1cccnc1` [Compound 03-33], on EPH-B4 (setting [1]), the “residual kinase activity, EPH-B4” value was 106. Also, the “residual kinase activity, PAK6” value on PAK6 (setting [1]) was determined as 119. Moreover, the “residual kinase activity, PRAK” value at PRAK (setting [1]) is 83. Besides, the “residual kinase activity, MARK4” value at MARK4 (setting [1]) is listed as 95.
`O=C(Nc1nc2ccc(O)cc2s1)c1ccccc1` [Compound 03-60]: the “residual kinase activity, EPH-B4” value at EPH-B4 (setting [1]) came to 110. Also, the “residual kinase activity, PAK6” value at PAK6 (setting [1]) worked out at 104. Moreover, the “residual kinase activity, PRAK” value on PRAK (setting [1]) is listed as 39. The “residual kinase activity, MARK4” value on MARK4 (setting [1]) was 67.
`CC(=O)Nc1nc2cc(C(F)(F)F)ccc2s1` [Compound 03-73]: the remaining activity at 100 µM at EPH-B4 (setting [1]) amounted to 101%; at PAK6 (setting [1]), 11%; at PRAK (setting [1]), 87%; at MARK4 (setting [1]), 97%.
Regarding `CC(=O)Nc1nc2cc(C)ccc2s1` [Compound 03-76], at EPH-B4 (setting [1]), the “residual kinase activity, EPH-B4” value is reported as 109. The “residual kinase activity, PAK6” value on PAK6 (setting [1]) came to 108. For the same compound, on PRAK (setting [1]), the “residual kinase activity, PRAK” value turned out to be 75. In addition, the “residual kinase activity, MARK4” value on MARK4 (setting [1]) is 80.
As for `CC(=O)Nc1nc2cc(F)ccc2s1` [Compound 03-77], the remaining activity at 100 µM stood at 112% at EPH-B4 (setting [1]), 106% at PAK6 (setting [1]), 76% on PRAK (setting [1]) and 86% on MARK4 (setting [1]).
Take `O=C(Nc1nc2ccc(O)cc2s1)c1ccncc1` [Compound 08-42]: the “residual kinase activity, EPH-B4” value on EPH-B4 (setting [1]) turned out to be 92. Further, at PAK6 (setting [1]), the “residual kinase activity, PAK6” value was found to be 93. At PRAK (setting [1]), the “residual kinase activity, PRAK” value is given as 74. In addition, the “residual kinase activity, MARK4” value on MARK4 (setting [1]) worked out at 82.
For `O=C(Nc1nc2ccc(O)cc2s1)c1cccnc1` [Compound 08-44], in that order: 100, 94, 60 and 77.
